The values below come from patent publication US20140113877A1, “NOVEL 3,4,4A,10B-TETRAHYDRO-1H-THIOPYRANO[4,3-C] ISOQUINOLINE COMPOUNDS” (Takeda GmbH, priority 2011, published 2014).

In one test the target is T1, PDE4B1 (Homo sapiens, UniProt Q07343).
T1 construct: made in house; host or cells: SF21 insect cells (baculovirus; virus prepared in SF9 cells)
Nature of the test: Inhibition of PDE4B1 activity (SPA, [3H]cAMP). The format is biochemical. The following applies: recombinant PDE4B1, 0.5 μM cAMP; binned: below 8 / between 8 and 9; read-out: PDE4B1 inhibitory values measured as −logIC50 (converted). How it is done: The PDE4B1 (GB no. L20966) was a gift of Prof. M. Conti (Stanford University, USA). It was amplified from the original plasmid (pCMV5) via PCR with primers Rb18 (5′-[…]-3′) and Rb10 (5′-[…]-3′) and cloned into the pCR-Bac vector (Invitrogen, Groningen, NL).
The recombinant baculovirus was prepared by means of homologous recombination in SF9 insect cells. The expression plasmids were cotransfected with Baculo-Gold DNA (Pharmingen, Hamburg) using a standard protocol (Pharmingen, Hamburg). Wt virus-free recombinant virus supernatants were selected using plaque assay methods. After that, high-titre virus supernatants were prepared by amplifying 3 times. PDE4B1 was expressed in SF21 cells by infecting 2×10^6 cells/ml with an MOI (multiplicity of infection) between 1 and 10 in the serum-free SF900 medium (GIBCO Life Technologies, Karlsruhe, Germany). The cells were cultured at 28° C. for 48-72 hours, after which they were pelleted for 5-10 min at 1000×g and 4° C.
The SF21 insect cells were resuspended, at a concentration of approx. 10^7 cells/ml, in ice-cold (4° C.) homogenization buffer (20 mM Tris, pH 8.2, containing the following additions: 140 mM NaCl, 3.8 mM KCl, 1 mM EGTA, 1 mM MgCl2, 10 mM β-mercaptoethanol, 2 mM benzamidine, 0.4 mM Pefablock, 10 μM leupeptin, 10 μM pepstatin A, 5 μM trypsin inhibitor) and disrupted by ultrasonication. The homogenate was then centrifuged for 10 min at 1000×g and the supernatant was stored at −80° C. until subsequent use (see below). The protein content was determined by the Bradford method (BioRad, Munich) using BSA (Bovine serum albumin) as the standard.
PDE4B1 activities were measured in a 96-well platform using SPA (scintillation proximity assay) yttrium silicate beads (RPNQ1050 from GE Healthcare). In a first step the PDE activity operated hydrolysis of either [^3H] cAMP (substrate) into [^3H] 5′AMP. In a second step substrate and product were distinguished following addition of SPA yttrium silicate beads. Indeed, in the presence of zinc sulphate the linear [^3H] […] Close proximity of bound [^3H] […] The test volume was 100 μl and finally contained 20 mM Tris buffer (pH 7.4), 0.1 mg/ml of BSA, 5 mM Mg^2+, 0.5 μM cAMP (including about 50,000 cpm of [3H]cAMP) as substrate, 1 μl of the respective substance dilution in DMSO and sufficient recombinant PDE (1000×g supernatant, see above) to ensure that 10-20% of the cAMP was converted under the said experimental conditions. […] After a preincubation of 5 min at 37° C., the reaction was commenced by adding the substrate (cAMP) and the assays were incubated for a further 15 min. Reactions were terminated by adding SPA beads (50 μl). In agreement with the manufacturer's instructions, the SPA beads had previously been resuspended in water, but were then diluted 1:3 (v/v) in water. This diluted solution further contained 3 mM IBMX (isobutylmethylxanthine) to ensure a complete block of PDE activity. Once the beads were sedimented (>30 min), the MTP's (microtiter plate) were analyzed in commercially available luminescence detection devices. The corresponding IC50 values of the compounds for inhibition of PDE4B1 activity were determined from the concentration-effect curves by means of non-linear regression.
For the following compounds PDE4B1 inhibitory values [measured as −logIC50 (mol/l)] below 8 and between 8 and 9 have been determined. The numbers of the compounds correspond to the numbers of the examples.

A further test addresses T2, human PDE5 (Homo sapiens, UniProt O76074).
T2 construct: from tissue; host or cells: human platelets from fresh donor blood (platelet lysate)
Briefly: Inhibition of PDE5 activity (SPA, [3H]cGMP, platelet lysate). The following applies: 0.5 μM cGMP, binned: below 8 / between 8 and 9, read-out: PDE5 inhibitory values measured as −logIC50 (converted). The format is biochemical. How it is done:
As a source for human PDE5, platelets were used. For that purpose, 150 ml fresh blood from human donors anticoagulated with citrate [final concentration 0.3% (w/v)] was centrifuged at 200 g for 10 min to obtain the so-called platelet-rich-plasma (PRP) as a supernatant. 1/10 volume of ACD solution (85 mM Na3-citrate, 111 mM D-glucose, 71 mM citric acid, pH 4.4) was added to 9/10 volume of PRP. After centrifugation (1,400 g, 10 min) the cell pellet was resuspended in 3 ml homogenization buffer (NaCl 140 mM, KCl 3.8 mM, EGTA (ethylene glycol tetraacetic acid) 1 mM, MgCl2 1 mM, Tris-HCl 20 mM, beta-mercaptoethanol 1 mM, pH 8.2) plus protease-inhibitor mix resulting in final concentrations of 0.5 mM Pefablock (Roche), 10 μM Leupeptin, 5 μM Trypsine inhibitor, 2 mM Benzamidin and 10 μM Pepstatin A. The suspension was sonicated and thereafter centrifuged for 15 min at 10,000 g. The resulting supernatant (platelet lysate) was used for enzymatic assays.
PDE5 activities were measured in a 96-well platform using SPA (scintillation proximity assay) yttrium silicate beads (RPNQ1050 from GE Healthcare). In a first step the PDE activity operated hydrolysis of either [^3H] cGMP (substrate) into [^3H] 5′GMP. In a second step substrate and product were distinguished following addition of SPA yttrium silicate beads. Indeed, in the presence of zinc sulphate the linear [^3H] […] Close proximity of bound [^3H] […] The test volume was 100 μl and contained 20 mM Tris buffer (pH 7.4), 0.1 mg of BSA (bovine serum albumin)/ml, 5 mM Mg^2+, 1 μM motapizone (PDE3 Inhibitor), 10 nM PDE2 inhibitor 2-(3,4-dimethoxybenzyl)-7-[(1R,2R)-2-hydroxy-1-(2-phenylethyl)propyl]-5-methylimidazo[5,1-f][1,2,4]triazin-4(3H)-one, 0.5 μM cGMP (cyclic guanosine monophosphate) (including about 50,000 cpm of [3H]cGMP as a tracer) (substrate), 1 μl of the respective compound dilution in dimethylsulfoxide (DMSO) and sufficient PDE5-containing platelet lysat (10,000×g supernatant, see above) to ensure that 10-20% of the cGMP was converted under the said experimental conditions. […] After a preincubation of 5 min at 37° C., the reaction was commenced by adding the substrate (cGMP) and the assay was incubated for a further 15 min. The reaction was terminated by adding SPA beads (50 μl). In agreement with the manufacturer's instructions, the SPA beads had previously been resuspended in water, but were then diluted 1:3 (v/v) in water. This diluted solution also contained 3 mM 8-methoxymethyl-3-isobutyl-1-methylxanthine (IBMX) to ensure a complete block of PDE activity. Once the beads were sedimented (>30 min), the MTP's were analyzed in commercially available luminescence detection devices. The corresponding IC50 values of the compounds for inhibition of PDE activity were determined from the concentration-effect curves by means of non-linear regression.
For the following compounds PDE5 inhibitory values [measured as −logIC50 (mol/l)] below 8 and between 8 and 9 have been determined. The numbers of the compounds correspond to the numbers of the examples.

A value given as a limit tells only on which side of the number the result lay.

T1 sequence (Q07343 whole entry): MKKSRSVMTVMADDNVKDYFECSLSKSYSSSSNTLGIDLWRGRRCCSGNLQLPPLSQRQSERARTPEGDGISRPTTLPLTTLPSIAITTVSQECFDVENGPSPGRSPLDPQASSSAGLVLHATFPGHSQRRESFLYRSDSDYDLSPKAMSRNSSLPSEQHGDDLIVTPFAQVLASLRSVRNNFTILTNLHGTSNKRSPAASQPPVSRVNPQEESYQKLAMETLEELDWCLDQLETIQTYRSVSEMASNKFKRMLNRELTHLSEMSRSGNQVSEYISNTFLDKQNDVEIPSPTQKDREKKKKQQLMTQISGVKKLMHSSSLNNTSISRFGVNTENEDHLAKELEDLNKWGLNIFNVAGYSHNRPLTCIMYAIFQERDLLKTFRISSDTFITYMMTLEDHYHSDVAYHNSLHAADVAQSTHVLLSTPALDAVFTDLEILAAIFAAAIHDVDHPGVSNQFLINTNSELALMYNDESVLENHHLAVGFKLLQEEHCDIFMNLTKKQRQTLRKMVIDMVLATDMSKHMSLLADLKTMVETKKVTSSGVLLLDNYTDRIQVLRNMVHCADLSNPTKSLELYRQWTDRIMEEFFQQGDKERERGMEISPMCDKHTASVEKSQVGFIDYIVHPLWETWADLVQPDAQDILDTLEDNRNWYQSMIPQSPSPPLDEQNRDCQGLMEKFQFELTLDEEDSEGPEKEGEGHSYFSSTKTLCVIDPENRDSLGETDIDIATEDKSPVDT

As to `CCOc1cc2c(cc1OC)C(c1ccc(C(=O)N3CCC(n4c(=O)c5sc(-c6cc(F)ccc6OC)cc5n(Cc5ccc(OC)c(F)c5)c4=O)CC3)cc1)=N[C@@H]1CCSC[C@H]21` [Example 10, 3-[1-({4-[(4aR,10bR)-9-ethoxy-8-methoxy-3,4,4a,10b-tetrahydro-1H-thiopyrano[4,3-c]isoquinolin-6-yl]phenyl}carbonyl)piperidin-4-yl]-1-(3-fluoro-4-methoxybenzyl)-6-(5-fluoro-2-methoxyphenyl)thieno[3,2-d]pyrimidine-2,4(1H,3H)-dione], the IC50 at PDE4B1 and on human PDE5 was 1 to 10 nM throughout.

As for `CCOc1cc2c(cc1OC)C(c1ccc(C(=O)N3CCC(n4c(=O)c5sc(-c6ccccc6)cc5n(Cc5ccc(OC)c(F)c5F)c4=O)CC3)cc1)=N[C@@H]1CCSC[C@H]21` [Example 4, 1-(2,3-difluoro-4-methoxybenzyl)-3-[1-({4-[(4aR,10bR)-9-ethoxy-8-methoxy-3,4,4a,10b-tetrahydro-1H-thiopyrano[4,3-c]isoquinolin-6-yl]phenyl}carbonyl)piperidin-4-yl]-6-phenylthieno[3,2-d]pyrimidine-2,4(1H,3H)-dione], the IC50 at PDE4B1 and at human PDE5 was 1 to 10 nM throughout.

With `CCOc1cc2c(cc1OC)C(c1ccc(C(=O)N3CCC(n4c(=O)c5sc(-c6ccccc6)cc5n(Cc5cc(F)c(OC)c(F)c5)c4=O)CC3)cc1)=N[C@@H]1CCSC[C@H]21` [Example 3, 1-(3,5-difluoro-4-methoxybenzyl)-3-[1-({4-[(4aR,10bR)-9-ethoxy-8-methoxy-3,4,4a,10b-tetrahydro-1H-thiopyrano[4,3-c]isoquinolin-6-yl]phenyl}carbonyl)piperidin-4-yl]-6-phenylthieno[3,2-d]pyrimidine-2,4(1H,3H)-dione], the IC50 on PDE4B1 and on human PDE5 was 1 to 10 nM throughout.

As for `CCOc1cc2c(cc1OC)C(c1ccc(C(=O)N3CCC(n4c(=O)c5sc(-c6ccccc6)cc5n(Cc5ccc(OC)c(F)c5)c4=O)CC3)cc1)=N[C@@H]1CCSC[C@H]21` [Example 1, 3-(1-{4-[(4aR,10bR)-9-ethoxy-8-methoxy-3,4,4a,10b-tetrahydro-1H-thiopyrano[4,3-c]isoquinolin-6-yl]benzoyl}piperidin-4-yl)-1-(3-fluoro-4-methoxybenzyl)-6-phenylthieno[3,2-d]pyrimidine-2,4(1H,3H)-dione], the IC50 on PDE4B1 and on human PDE5 was 1 to 10 nM throughout.

Take `CCOc1cc2c(cc1OC)C(c1ccc(C(=O)N3CCC(n4c(=O)c5sc(-c6ccccc6)cc5n(Cc5ccc(C)c(F)c5)c4=O)CC3)cc1)=N[C@@H]1CCSC[C@H]21` [Example 6, 3-[1-({4-[(4aR,10bR)-9-ethoxy-8-methoxy-3,4,4a,10b-tetrahydro-1H-thiopyrano[4,3-c]isoquinolin-6-yl]phenyl}carbonyl)piperidin-4-yl]-1-(3-fluoro-4-methylbenzyl)-6-phenylthieno[3,2-d]pyrimidine-2,4(1H,3H)-dione]: the IC50 on PDE4B1 is over 10 nM; on human PDE5 it was 1 to 10 nM.

On to `CCOc1cc2c(cc1OC)C(c1ccc(C(=O)N3CCC(n4c(=O)c5sc(-c6ccc7c(c6)OCO7)cc5n(Cc5ccc(OC)c(F)c5)c4=O)CC3)cc1)=N[C@@H]1CCSC[C@H]21` [Example 8, 6-(1,3-benzodioxol-5-yl)-3-[1-({4-[(4aR,10bR)-9-ethoxy-8-methoxy-3,4,4a,10b-tetrahydro-1H-thiopyrano[4,3-c]isoquinolin-6-yl]phenyl}carbonyl)piperidin-4-yl]-1-(3-fluoro-4-methoxybenzyl)thieno[3,2-d]pyrimidine-2,4(1H,3H)-dione], for which the IC50 at PDE4B1 and at human PDE5 was 1 to 10 nM each time.

For `CCOc1cc2c(cc1OC)C(c1cccc(C(=O)N3CCC(n4c(=O)c5sc(-c6ccc7c(c6)OCO7)cc5n(Cc5ccc(OC)c(F)c5)c4=O)CC3)c1)=N[C@@H]1CCSC[C@H]21` [Example 20, 6-(1,3-benzodioxol-5-yl)-3-[1-({3-[(4aR,10bR)-9-ethoxy-8-methoxy-3,4,4a,10b-tetrahydro-1H-thiopyrano[4,3-c]isoquinolin-6-yl]phenyl}carbonyl)piperidin-4-yl]-1-(3-fluoro-4-methoxybenzyl)thieno[3,2-d]pyrimidine-2,4(1H,3H)-dione], the IC50 at PDE4B1 is over 10 nM; on human PDE5, 1 to 10 nM.

With `CCOc1cc2c(cc1OC)C(c1ccc(C(=O)N3CCC(n4c(=O)c5sc(-c6ccccc6F)cc5n(Cc5ccc(OC)c(F)c5)c4=O)CC3)cc1)=N[C@@H]1CCSC[C@H]21` [Example 12, 3-[1-({4-[(4aR,10bR)-9-ethoxy-8-methoxy-3,4,4a,10b-tetrahydro-1H-thiopyrano[4,3-c]isoquinolin-6-yl]phenyl}carbonyl)piperidin-4-yl]-1-(3-fluoro-4-methoxybenzyl)-6-(2-fluorophenyl)thieno[3,2-d]pyrimidine-2,4(1H,3H)-dione], the IC50 on PDE4B1 and at human PDE5 was 1 to 10 nM in each case.

As for `CCOc1cc2c(cc1OC)C(c1cccc(C(=O)N3CCC(n4c(=O)c5sc(-c6ccccc6)cc5n(Cc5ccc(OC)c(F)c5)c4=O)CC3)c1)=N[C@@H]1CCSC[C@H]21` [Example 2, 3-[1-({3-[(4aR,10bR)-9-ethoxy-8-methoxy-3,4,4a,10b-tetrahydro-1H-thiopyrano[4,3-c]isoquinolin-6-yl]phenyl}carbonyl)piperidin-4-yl]-1-(3-fluoro-4-methoxybenzyl)-6-phenylthieno[3,2-d]pyrimidine-2,4(1H,3H)-dione], the IC50 on PDE4B1 and on human PDE5 was 1 to 10 nM in each case.
